Laboratory results reported in ChEMBL document CHEMBL1159303, “Isolation and structure determination of obyanamide, a novel cytotoxic cyclic depsipeptide from the marine cyanobacterium Lyngbya confervoides” (J Nat Prod, 2002).
Converted amounts (≈) assume the structure as drawn.

Columns and labels:
KB = test: Cytotoxicity against human KB cells; format: functional, cell-based
LoVo = test: Cytotoxicity against human LoVo cells; format: functional, cell-based

SMILES: CC[C@H]1CC(=O)O[C@@H](C)C(=O)N(C)[C@@H](C(C)C)C(=O)N(C)[C@@H](Cc2ccccc2)C(=O)N[C@@H](C)c2nc(cs2)C(=O)N1 [OBYANAMIDE]
- IC50 (KB): 0.58 µg/mL (≈ 0.967 µM)
- IC50 (LoVo): 3.14 µg/mL (≈ 5.24 µM)
